Results taken from patent US4347177A, “Compounds and methods of making them” (Burroughs Wellcome Co., priority 1980, dated 1982).

Experiment: Pharmacokinetics of bupropion in plasma after oral administration to four normal male subjects (RIA using 3H bupropion)
Format: in vivo
Conditions: human plasma, oral 200 mg bupropion-HCl (two 100 mg tablets)
Experimental: Samples of six standard solutions of bupropion in blank plasma having concentrations of 0.39 to 50 ng/ml) are pipetted (0.1 ml each) in duplicate into 12×75 mm plastic tubes. Duplicate non-specific binding (no antibody) and maximum binding tubes (no unlabeled bupropion) receive 0.1 ml blank plasma. Spiked plasma controls at several concentrations of (e.g., 1.0, 10.0, and 100 ng/ml) and plasma samples for assay (diluted into the standard range with blank plasma if necessary) are assayed in duplicate. After being placed in an ice bath, all tubes receive (in order) 0.2 ml ^3 H bupropion (416 pg. containing approximately 10^4 cpm) and 0.7 ml anti-bupropion serum (raised to a ring-functionalized immunogen according to the present invention) (at pre-determined dilutions such that approximately 40% of the ^3 H bupropion added is bound), both in assay buffer (0.05 M phosphate-bufferedisotonic saline, containing 0.01 M EDTA and 0.1% gelatin, pH 7.0). […] The supernatants, containing antibody-bound ^3 H bupropion are carefully decanted into liquid scintillation cocktail for quantitation of ^3 H. After counts (minus average non-specific binding cpm) are expressed as percentages of average maximum binding cpm, bupropion concentrations in plasma samples and spiked controls are read from a standard curve (log concentration vs percent average maximum binding).
The procedure of Example X has been applied to a study of bupropion (supplied as Wellbatrin, produced by Burroughs Wellcome Co.) pharmacokinetics in plasma after oral administration of 200 mg bupropion-HCl (in two 100 mg tablets) to four normal male subjects. Venous blood samples were collected at various times following dosing, and concentrations in plasma samples determined as described. […]

Question: Which results are given for `CC(NC(C)(C)C)C(=O)c1cccc(Cl)c1` (racemic) [bupropion, (±)-2-tert-butylamino-3'-chloropropiophenone]?
Answer: Cmax (mean ± S.D., read-out: maximum plasma bupropion concentration): 217 ± 37 ng/mL; Tmax (mean ± S.D., read-out: time to reach maximum concentration): 1.5 ± 0.4 h; half-life (± S.D., read-out: mean elimination half-life (converted)): 2.9 ± 0.4 h
